The source made the active and inactive calls. The calls are words filed in the database; no cut-off is given here.
Experiments:
[1] = system: RAW264.7; test: Anti-inflammatory activity in mouse RAW264.7 assessed as LPS-induced iNOS mRNA expression at 62.5 uM incubated for 16 hrs by RT-PCR analysis relative to control; assay type: functional
[2] = in vitro; details: mouse
Description: Cytotoxicity against mouse RAW264.7 cells assessed as cell viability at 6.25 uM by MTT assay relative to control

[3] = system: RAW264.7; test: Anti-inflammatory activity in mouse RAW264.7 assessed as decrease in LPS-induced IL-1beta mRNA expression at 62.5 uM incubated for 16 hrs by RT-PCR analysis; assay type: functional, cell-based
[4] = system: RAW264.7; test: Anti-inflammatory activity in mouse RAW264.7 assessed as decrease in LPS-induced COX-2 mRNA expression at 62.5 uM incubated for 16 hrs by RT-PCR analysis; assay type: functional, cell-based
[5] = system: RAW264.7; test: Cytotoxicity against mouse RAW264.7 cells assessed as cell viability at 6.25 uM by MTT assay; assay type: toxicity, cell-based; details: raw264.7, 6.25 µM
[6] = system: RAW264.7; test: Anti-inflammatory activity in mouse RAW264.7 assessed as decrease in LPS-induced TNF-alpha mRNA expression at 62.5 uM incubated for 16 hrs by RT-PCR analysis relative to control; assay type: functional; design: scale not given: the % may be the effect or the level left
[7] = system: RAW264.7; test: Anti-inflammatory activity in mouse RAW264.7 assessed as decrease in LPS-induced IL-1beta mRNA expression at 62.5 uM incubated for 16 hrs by RT-PCR analysis relative to control; assay type: functional; design: scale not given: the % may be the effect or the level left
[8] = system: RAW264.7; test: Anti-inflammatory activity in mouse RAW264.7 assessed as decrease in LPS-induced iNOS mRNA expression at 62.5 uM incubated for 16 hrs by RT-PCR analysis relative to control; assay type: functional; design: scale not given: the % may be the effect or the level left
[9] = system: RAW264.7; test: Anti-inflammatory activity in mouse RAW264.7 assessed as decrease in LPS-induced COX-2 mRNA expression at 62.5 uM incubated for 16 hrs by RT-PCR analysis relative to control; assay type: functional; design: scale not given: the % may be the effect or the level left
[10] = system: RAW264.7; test: Anti-inflammatory activity in mouse RAW264.7 assessed as LPS-induced IL-1beta mRNA expression at 62.5 uM incubated for 16 hrs by RT-PCR analysis relative to control; assay type: functional
[11] = system: RAW264.7; test: Anti-inflammatory activity in mouse RAW264.7 assessed as LPS-induced COX-2 mRNA expression at 62.5 uM incubated for 16 hrs by RT-PCR analysis relative to control; assay type: functional
[12] = system: RAW264.7; test: Anti-inflammatory activity in mouse RAW264.7 assessed as LPS-induced TNF-alpha mRNA expression at 62.5 uM incubated for 16 hrs by RT-PCR analysis relative to control; assay type: functional
[13] = system: RAW264.7; test: Anti-inflammatory activity in mouse RAW264.7 assessed as decrease in LPS-induced IL-1beta mRNA expression incubated for 16 hrs by RT-PCR analysis; assay type: functional, cell-based; details: dose 0.1-62.5 µM
[14] = system: RAW264.7; test: Anti-inflammatory activity in mouse RAW264.7 assessed as decrease in LPS-induced COX-2 mRNA expression incubated for 16 hrs by RT-PCR analysis; assay type: functional, cell-based; details: dose 0.1-62.5 µM

## O=c1[nH]cnc2ncccc12
[1]
  Activity: 62.82%
[2]; RAW264.7 cells
  viability at 6.25 µM: > 80%
[3]
  Activity: inactive
[4]
  Activity: inactive

## O=c1[nH]c(/C=C/c2ccccc2)nc2ccccc12
[5]
  Activity: Toxic

## O=c1[nH]cnc2ccccc12 [QUINAZOLINONE]
[2]; raw264.7
  viability at 6.25 µM: > 80%

## O=c1[nH]cnc2ccc(F)cc12
[2]; RAW264.7 cells
  viability at 6.25 µM: > 80%
[6]
  Activity: <50%
[7]
  Activity: 10.85%

## O=c1[nH]cnc2cc(F)ccc12
[2]; RAW264.7 cells
  viability at 6.25 µM: > 80%
[6]
  Activity: <50%
[7]
  Activity: 10.85%

## O=c1c2ccccc2ncn1-c1ccccc1
[2]; RAW264.7 cells
  viability at 6.25 µM: > 80%
[8]
  Activity: <22%
[9]
  Activity: 28.46%

## CC(C)c1nc2ccccc2c(=O)[nH]1
[10]
  Activity: 14.02%
[11]
  Activity: 20.47%
[2]; RAW264.7 cells
  viability at 6.25 µM: > 80%
[3]
  Activity: Active

## COc1ccc(-c2nc(O)c3ccccc3n2)cc1
[10]
  Activity: <35%
[4]
  Activity: inactive

## Oc1ncnc2cc(Cl)ccc12
[2]; RAW264.7 cells
  viability at 6.25 µM: > 80%
[6]
  Activity: <50%
[7]
  Activity: 10.85%

## Cn1cnc2ccccc2c1=O
[2]; RAW264.7 cells
  viability at 6.25 µM: > 80%
[8]
  Activity: <22%
[9]
  Activity: 28.85%

## CCCCCCCCc1nc2ccccc2c(=O)[nH]1
[10]
  Activity: 6.92%
[11]
  Activity: 11.14%
[2]; RAW264.7 cells
  viability at 6.25 µM: > 80%
[12]
  Activity: 44%
[3]
  Activity: Active
[13]
  Activity: Dose-Dependent Effect
[14]
  Activity: Dose-Dependent Effect

## Cc1nc2ccccc2c(=O)[nH]1
[10]
  Activity: 58.79%
[11]
  Activity: 60.96%
[2]; RAW264.7 cells
  viability at 6.25 µM: > 80%

## Cc1cccc(-c2nc(O)c3ccccc3n2)c1
[10]
  Activity: <35%
[11]
  Activity: 3.79%
[2]; RAW264.7 cells
  viability at 6.25 µM: > 80%

## CCC(C)c1nc2ccccc2c(=O)[nH]1 (configuration not stated)
[10]
  Activity: 4.02%
[11]
  Activity: 0.5%
[2]; RAW264.7 cells
  viability at 6.25 µM: > 80%
[12]
  Activity: 44%
[3]
  Activity: Active

## O=c1[nH]c(-c2cccc(C(F)(F)F)c2)nc2ccccc12
[10]
  Activity: <35%
[1]
  Activity: 13.98%
[2]; RAW264.7 cells
  viability at 6.25 µM: > 80%
[4]
  Activity: inactive

## Oc1nc(C2CCCCC2)nc2ccccc12
[11]
  Activity: >80%
[2]; RAW264.7 cells
  viability at 6.25 µM: > 80%
[12]
  Activity: 44%
[13]
  Activity: Dose-Dependent Effect
[14]
  Activity: Dose-Dependent Effect
[7]
  Activity: 75.72%

## CCCCCCc1nc2ccccc2c(=O)[nH]1
[10]
  Activity: 3.1%
[2]; RAW264.7 cells
  viability at 6.25 µM: > 80%
[9]
  Activity: 95%

## COc1ccc(-c2nc3ccccc3c(=O)[nH]2)cc1
[2]; RAW264.7 cells
  viability at 6.25 µM: > 80%

## CC(c1ccccc1)n1cnc2ccccc2c1=O (configuration not stated)
[2]; RAW264.7 cells
  viability at 6.25 µM: > 80%
[8]
  Activity: <22%
[4]
  Activity: Active
